Measurements: patent US9896418B2, “Aryl ethers and uses thereof” (Peloton Therapeutics, Inc., priority 2013, dated 2018)

Columns and labels:
mouse kidney = experiment: In vivo PK/PD study, kidney mRNA levels by qRT-PCR; set-up: species or system SCID/Biege mice; settings: FIG. 3
Description: About 5×10^6 renal cell carcinoma 786-O tumor cells (ATCC® CRL-1932™, VHL and HIF-1α null cell line) in PBS and Matrigel (1:1 in volume) were injected subcutaneously at the right flanks of SCID/Biege mice at 6-7 weeks of age for xenograft development. When the xenografts reached about 450 mm^3 in size, the tumor bearing mice were randomly divided into 4 groups (n=4). Plasma was collected prior to treatment by retro-orbital bleeding. […] All animals were sacrificed at 12 hours post last dose. Tumor, kidney, and plasma were collected from each animal. Total RNA was extracted from the tumors and kidneys. The mRNA levels of HIF-1α, HIF-2α and their respective target genes were determined by qRT-PCR (FIG. 1).

human VEGFA [1] = experiment: In vivo PK/PD study, plasma human VEGFA by ELISA; set-up: species or system SCID/Biege mice; settings: 786-O tumor-bearing mice; 10, 30 or 100 mg/kg; FIG. 5
[2] = system: renal cell carcinoma 786-O xenograft; experiment: tumor size in 786-O xenograft bearing mice, single agent; type: in vivo; settings: 3, 10, 30 and 100 mg/kg BID for 20 days, FIG. 7
human VEGFA [3] = experiment: plasma human VEGF level of 786-O xenograft bearing mice; type: in vivo; settings: 10, 30 and 100 mg/kg three times at 12 hour intervals, 12 h post treatment vs prior to treatment, FIG. 5
[4] = system: 786-O renal cell carcinoma xenograft; experiment: In vivo efficacy study, 786-O xenograft; set-up: species or system SCID/Biege mice; settings: for Tumor size Mean ± SEM: after 20 days of dosing

SMILES: N#Cc1cc(F)cc(Oc2ccc(S(=O)(=O)C(F)F)c3c2CC(F)(F)[C@H]3O)c1 [Compound 15, 3-[(1S)-7-(difluoromethylsulfonyl)-2,2-difluoro-1-hydroxy-indan-4-yl]oxy-5-fluoro-benzonitrile]
- Kidney EPO mRNA level (mouse kidney): reduced
- Kidney PGK1 mRNA level (mouse kidney): remained unchanged
- plasma level of human VEGFA (human VEGFA [1]): significant reduction
- tumor size [2]: tumor size reduction and regression
- plasma level of human VEGFA (human VEGFA [3]): reduced
- Tumor size Mean ± SEM ([4]; 3 mg/kg BID): 136.29 ± 15.77 mm^3
- Tumor size Mean ± SEM ([4]; 10 mg/kg BID): 45.36 ± 2.22 mm^3
- Tumor size Mean ± SEM ([4]; 30 mg/kg BID): 35.63 ± 2.26 mm^3
- Tumor size Mean ± SEM ([4]; 100 mg/kg BID): 37.11 ± .6 mm^3
- Tumor size change vs vehicle ([4]; 3, 10, 30 and 100 mg/kg BID, 20 days, t-Test): statistically significant reduction of tumor size
